Where only a bound is given, the exact number is not on record here.

For experiment [1], the system named is MM.1S. The experiment can be described thus: Tumor cell proliferation inhibition (CellTiter-Meiluncell Luminescent Cell Viability Assay), MM.1S. To be noted: Homo sapiens, MM1.S, read-out: inhibitory activity (IC50, nM) against tumor cells proliferation, MM.1S.
Procedure: (§1) The tumor cells used herein were cultured in a cell culture medium listed in table 2 at 37°C in an incubator with 5% CO2. Prior to experimentation, all cell lines used were correctly identified by STR profiling, and tested negative for mycoplasma contamination using a mycoplasma detection kit through routine screenings.
On the following day, the test compounds of the present disclosure were subjected to serial dilution. […] Subsequently, 0.5 µL of the test compound dilution was transferred into the 96-well plate containing the cells, with each well containing 100 µL of cell culture medium. […] Into the 96-well plate, the diluted test compounds and corresponding detection reagents were added, resulting in final test compound concentrations of 500 nM and 10 nM, respectively.
(§2) After the cells were treated with the compounds of the present disclosure for a specified period (the treatment durations were shown in Table 3), the cell viability assay reagent was added to the culture medium according to the kit's instructions to determine cell viability. […] All controls were treated using the same procedure as the compounds of the present disclosure. The growth inhibition curves for the compounds of the present disclosure were plotted using Prism GraphPad software, and the IC50 values were calculated therefrom.
Experiment [2] concerns Jurkat. The experiment can be described thus: Tumor cell proliferation inhibition (CellTiter-Meiluncell Luminescent Cell Viability Assay), Jurkat. To be noted: Homo sapiens, read-out: inhibitory activity (IC50, nM) against tumor cells proliferation, Jurkat.
Procedure: as §1
On the following day, the test compounds of the present disclosure were subjected to serial dilution. […] Subsequently, 0.5 µL of the test compound dilution was transferred into the 96-well plate containing the cells, with each well containing 100 µL of cell culture medium. […] Into the 96-well plate, the diluted test compounds and corresponding detection reagents were added, resulting in final test compound concentrations of 500 nM and 10 nM, respectively. The experimental procedure is described below using the diluted 2 µM test compound as an example.
as §2
The target of experiment [3] is T1, IKZF1 (Homo sapiens, UniProt Q13422+Q96SW2).
T1 construct: endogenous in cells; host or cells: hPBMCs (Milecell Biotechnologies)
The experiment is described as follows: Western-blot assay of substrate protein degradation in hPBMCs, IKZF1. Format: cell-based. To be noted: 24 hours of compound treatment, compounds tested at 50 nM and 500 nM (concentration of the table not stated).

Experiment [4] concerns the target T2, IKZF3 (Homo sapiens, UniProt Q96SW2+Q9UKT9).
T2 construct: endogenous in cells; host or cells: hPBMCs (Milecell Biotechnologies)
The experiment can be described thus: Western-blot assay of substrate protein degradation in hPBMCs, IKZF3. The following applies: 24 hours of compound treatment, compounds tested at 50 nM and 500 nM (concentration of the table not stated). The experiment is classed as cell-based.

In experiment [5] the target is T3, GSPT1 (Homo sapiens, UniProt P15170+Q96SW2).
T3 construct: endogenous in cells; host or cells: hPBMCs (Milecell Biotechnologies)
The experiment is described as follows: Western-blot assay of substrate protein degradation in hPBMCs, GSPT1. The experiment is classed as cell-based. To be noted: 24 hours of compound treatment, compounds tested at 50 nM and 500 nM (concentration of the table not stated).

Experiment [6] addresses T4, WEE1 (Homo sapiens, UniProt P30291+Q96SW2).
T4 construct: endogenous in cells; host or cells: hPBMCs (Milecell Biotechnologies)
The experiment is described as follows: Western-blot assay of substrate protein degradation in hPBMCs, WEE1. Format: cell-based. To be noted: 24 hours of compound treatment, compounds tested at 50 nM and 500 nM (concentration of the table not stated).

Experiment [7] has as its system NCI-H1975. The experiment is described as follows: Tumor cell proliferation inhibition (CellTiter-Meiluncell Luminescent Cell Viability Assay), NCI-H1975. To be noted: Homo sapiens, NCI-H1975, read-out: inhibitory activity (IC50, nM) against tumor cells proliferation, H1975.
The target in experiment [8] is T5, CK1α (Homo sapiens, UniProt P48729+Q96SW2).
T5 construct: endogenous in cells; host or cells: hPBMCs (Milecell Biotechnologies)
The experiment can be described thus: Western-blot assay of substrate protein degradation in hPBMCs, CK1α. To be noted: 24 hours of compound treatment, compounds tested at 50 nM and 500 nM (concentration of the table not stated). The experiment is classed as cell-based.

Experiment [9] relates to SR. The experiment can be described thus: Tumor cell proliferation inhibition (CellTiter-Meiluncell Luminescent Cell Viability Assay), SR. To be noted: Homo sapiens, read-out: inhibitory activity (IC50, nM) against tumor cells proliferation, SR.
Experiment [10] deals with T6, IKZF2 (Homo sapiens, UniProt Q96SW2+Q9UKS7).
T6 construct: endogenous in cells; host or cells: hPBMCs (Milecell Biotechnologies)
The experiment is described as follows: Western-blot assay of substrate protein degradation in hPBMCs, IKZF2. The experiment is classed as cell-based. The following applies: 24 hours of compound treatment, compounds tested at 50 nM and 500 nM (concentration of the table not stated).

Experiment [11] addresses T7, human Cereblon WT GST-tagged protein (Homo sapiens, UniProt Q96SW2).
T7 construct: purchased CISBIO 64BDCRBNPEH
The experiment is described as follows: CRBN-binding affinity by HTRF (CEREBLON BINDING kit). To be noted: HTRF inhibitory activity, CEREBLON BINDING kit; read-out: HTRF IC50.

The test system of experiment [12] is TMD8. The experiment is described as follows: Tumor cell proliferation inhibition (CellTiter-Meiluncell Luminescent Cell Viability Assay), TMD8. To be noted: Homo sapiens, TMD8, read-out: inhibitory activity (IC50, nM) against tumor cells proliferation, TMD8.

T7 sequence (Q96SW2 whole entry): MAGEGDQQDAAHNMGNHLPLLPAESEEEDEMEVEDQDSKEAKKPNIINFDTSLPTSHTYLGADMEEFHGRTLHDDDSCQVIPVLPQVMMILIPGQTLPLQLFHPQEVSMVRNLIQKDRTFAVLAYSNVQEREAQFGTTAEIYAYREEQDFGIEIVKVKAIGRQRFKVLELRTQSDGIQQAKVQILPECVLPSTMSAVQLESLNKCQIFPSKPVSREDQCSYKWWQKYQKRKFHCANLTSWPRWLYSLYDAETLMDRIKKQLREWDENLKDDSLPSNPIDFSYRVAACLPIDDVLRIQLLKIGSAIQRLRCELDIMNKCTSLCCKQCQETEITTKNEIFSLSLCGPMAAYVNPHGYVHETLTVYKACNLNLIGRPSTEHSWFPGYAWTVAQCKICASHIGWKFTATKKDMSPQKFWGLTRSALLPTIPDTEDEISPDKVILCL
T1 sequence (Q13422 whole entry): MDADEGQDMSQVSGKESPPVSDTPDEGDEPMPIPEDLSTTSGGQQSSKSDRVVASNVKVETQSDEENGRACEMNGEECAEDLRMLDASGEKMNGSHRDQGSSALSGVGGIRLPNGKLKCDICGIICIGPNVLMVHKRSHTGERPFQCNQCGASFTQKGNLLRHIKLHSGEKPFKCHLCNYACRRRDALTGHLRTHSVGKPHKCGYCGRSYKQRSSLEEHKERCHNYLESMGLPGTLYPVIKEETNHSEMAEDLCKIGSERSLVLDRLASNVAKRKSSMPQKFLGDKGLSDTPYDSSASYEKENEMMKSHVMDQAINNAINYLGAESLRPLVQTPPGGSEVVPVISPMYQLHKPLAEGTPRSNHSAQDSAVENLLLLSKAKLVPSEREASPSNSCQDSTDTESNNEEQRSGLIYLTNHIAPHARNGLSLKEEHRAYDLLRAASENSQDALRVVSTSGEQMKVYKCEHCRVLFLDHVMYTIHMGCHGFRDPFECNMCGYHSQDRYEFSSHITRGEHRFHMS
T1 sequence (Q96SW2 whole entry): as the sequence (Q96SW2 whole entry) above
T1 sequence (Q16531 whole entry partner): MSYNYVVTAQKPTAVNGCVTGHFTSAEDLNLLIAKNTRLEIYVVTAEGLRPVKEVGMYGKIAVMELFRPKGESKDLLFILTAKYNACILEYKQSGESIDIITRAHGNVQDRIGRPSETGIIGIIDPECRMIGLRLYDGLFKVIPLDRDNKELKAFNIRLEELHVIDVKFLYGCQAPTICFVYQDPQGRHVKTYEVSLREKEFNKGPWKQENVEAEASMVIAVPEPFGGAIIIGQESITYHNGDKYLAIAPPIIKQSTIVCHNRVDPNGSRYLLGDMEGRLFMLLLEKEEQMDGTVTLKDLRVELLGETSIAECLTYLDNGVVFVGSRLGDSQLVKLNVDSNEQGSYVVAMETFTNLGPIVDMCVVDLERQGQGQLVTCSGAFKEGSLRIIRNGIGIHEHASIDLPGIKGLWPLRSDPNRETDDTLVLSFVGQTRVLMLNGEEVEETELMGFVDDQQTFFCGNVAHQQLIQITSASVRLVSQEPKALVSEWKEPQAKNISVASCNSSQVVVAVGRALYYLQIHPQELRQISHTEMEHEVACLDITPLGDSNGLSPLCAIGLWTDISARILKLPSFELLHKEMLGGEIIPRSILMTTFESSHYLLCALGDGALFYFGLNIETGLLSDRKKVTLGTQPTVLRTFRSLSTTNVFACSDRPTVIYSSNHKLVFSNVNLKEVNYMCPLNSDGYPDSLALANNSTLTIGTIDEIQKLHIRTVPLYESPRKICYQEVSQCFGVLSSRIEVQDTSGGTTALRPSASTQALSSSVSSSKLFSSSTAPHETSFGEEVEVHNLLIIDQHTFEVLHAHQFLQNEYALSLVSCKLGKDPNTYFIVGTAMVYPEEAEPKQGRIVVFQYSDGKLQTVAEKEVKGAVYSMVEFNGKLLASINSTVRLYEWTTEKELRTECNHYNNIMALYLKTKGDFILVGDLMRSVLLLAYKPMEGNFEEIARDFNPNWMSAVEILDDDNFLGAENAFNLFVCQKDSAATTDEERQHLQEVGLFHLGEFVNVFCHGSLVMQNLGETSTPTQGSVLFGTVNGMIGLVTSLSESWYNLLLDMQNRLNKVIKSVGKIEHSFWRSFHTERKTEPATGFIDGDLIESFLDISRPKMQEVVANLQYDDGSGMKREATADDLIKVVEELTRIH
T3 sequence (P15170 whole entry): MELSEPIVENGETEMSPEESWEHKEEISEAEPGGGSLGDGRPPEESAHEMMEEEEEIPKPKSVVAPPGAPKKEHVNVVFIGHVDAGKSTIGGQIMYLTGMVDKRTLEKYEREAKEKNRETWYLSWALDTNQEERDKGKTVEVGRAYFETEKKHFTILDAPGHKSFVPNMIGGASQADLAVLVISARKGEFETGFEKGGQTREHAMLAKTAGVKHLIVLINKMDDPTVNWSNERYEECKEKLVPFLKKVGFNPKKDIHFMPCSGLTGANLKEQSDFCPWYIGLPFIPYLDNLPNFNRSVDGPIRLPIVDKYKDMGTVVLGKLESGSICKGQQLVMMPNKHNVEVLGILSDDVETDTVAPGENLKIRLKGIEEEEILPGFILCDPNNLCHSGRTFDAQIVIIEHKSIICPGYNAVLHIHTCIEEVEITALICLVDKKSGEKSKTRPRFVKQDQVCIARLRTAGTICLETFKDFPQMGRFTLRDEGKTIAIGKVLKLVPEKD
T3 sequence (Q96SW2 whole entry): as the sequence (Q96SW2 whole entry) above
T3 sequence (Q16531 whole entry partner): as the sequence (Q16531 whole entry partner) above
T4 sequence (P30291 whole entry): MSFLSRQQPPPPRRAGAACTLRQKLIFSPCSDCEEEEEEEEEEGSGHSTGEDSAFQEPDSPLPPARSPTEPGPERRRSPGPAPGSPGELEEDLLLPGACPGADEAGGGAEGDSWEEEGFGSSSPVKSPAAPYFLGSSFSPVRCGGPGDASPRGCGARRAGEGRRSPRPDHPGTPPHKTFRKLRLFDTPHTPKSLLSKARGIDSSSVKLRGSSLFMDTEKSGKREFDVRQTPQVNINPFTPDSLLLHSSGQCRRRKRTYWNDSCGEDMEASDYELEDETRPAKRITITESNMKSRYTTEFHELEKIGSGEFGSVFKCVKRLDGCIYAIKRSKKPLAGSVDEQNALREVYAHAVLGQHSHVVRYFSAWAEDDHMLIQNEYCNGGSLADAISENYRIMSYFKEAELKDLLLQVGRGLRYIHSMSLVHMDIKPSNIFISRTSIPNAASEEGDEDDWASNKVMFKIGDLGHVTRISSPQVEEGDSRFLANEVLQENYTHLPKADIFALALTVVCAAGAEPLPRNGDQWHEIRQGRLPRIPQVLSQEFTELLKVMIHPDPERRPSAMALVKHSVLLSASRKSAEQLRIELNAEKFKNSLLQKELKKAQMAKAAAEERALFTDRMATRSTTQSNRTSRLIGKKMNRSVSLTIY
T4 sequence (Q96SW2 whole entry): as the sequence (Q96SW2 whole entry) above
T4 sequence (Q16531 whole entry partner): as the sequence (Q16531 whole entry partner) above
T2 sequence (Q9UKT9 whole entry): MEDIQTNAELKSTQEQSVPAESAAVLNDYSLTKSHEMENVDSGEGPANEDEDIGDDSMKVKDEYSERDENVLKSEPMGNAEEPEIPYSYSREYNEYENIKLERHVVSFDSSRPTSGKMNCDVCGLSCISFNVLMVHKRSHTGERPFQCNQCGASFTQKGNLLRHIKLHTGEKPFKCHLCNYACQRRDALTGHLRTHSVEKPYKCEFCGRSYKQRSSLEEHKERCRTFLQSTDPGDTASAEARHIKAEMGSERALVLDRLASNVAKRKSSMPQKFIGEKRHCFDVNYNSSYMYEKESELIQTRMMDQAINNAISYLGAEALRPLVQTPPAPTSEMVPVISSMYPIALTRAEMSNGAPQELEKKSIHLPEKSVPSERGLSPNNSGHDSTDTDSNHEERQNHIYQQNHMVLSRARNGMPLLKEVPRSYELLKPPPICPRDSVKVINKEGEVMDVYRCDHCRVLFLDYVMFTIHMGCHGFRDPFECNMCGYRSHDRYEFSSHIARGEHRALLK
T2 sequence (Q96SW2 whole entry): as the sequence (Q96SW2 whole entry) above
T2 sequence (Q16531 whole entry partner): as the sequence (Q16531 whole entry partner) above
T6 sequence (Q9UKS7 whole entry): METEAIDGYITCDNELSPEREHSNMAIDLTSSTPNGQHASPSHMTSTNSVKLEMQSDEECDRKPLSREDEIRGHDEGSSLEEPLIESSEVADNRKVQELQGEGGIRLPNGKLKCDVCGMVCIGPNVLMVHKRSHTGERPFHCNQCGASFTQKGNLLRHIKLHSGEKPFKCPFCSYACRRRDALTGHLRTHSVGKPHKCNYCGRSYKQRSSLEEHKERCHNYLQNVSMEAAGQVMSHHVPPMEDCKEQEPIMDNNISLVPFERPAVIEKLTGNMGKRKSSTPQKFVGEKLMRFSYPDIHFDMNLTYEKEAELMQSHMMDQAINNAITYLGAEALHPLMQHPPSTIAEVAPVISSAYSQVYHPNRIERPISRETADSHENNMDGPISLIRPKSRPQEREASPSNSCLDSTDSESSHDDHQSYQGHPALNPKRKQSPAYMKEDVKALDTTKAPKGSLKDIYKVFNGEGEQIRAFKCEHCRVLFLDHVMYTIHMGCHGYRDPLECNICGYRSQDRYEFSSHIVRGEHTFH
T6 sequence (Q96SW2 whole entry): as the sequence (Q96SW2 whole entry) above
T6 sequence (Q16531 whole entry partner): as the sequence (Q16531 whole entry partner) above

Regarding `O=C1CCC(N2Cc3cc(CN4C5CCC4CN(c4cccc(Cl)c4Cl)C5)ccc3C2=O)C(=O)N1` (centres unmarked) [GT-04855, 3-(5-((3-(2,3-dichlorophenyl)-3,8-diazabicyclo[3.2.1]octan-8-yl)methyl)-1-oxoisoindolin-2-yl)piperidine-2,6-dione], the IC50 in [1] is 5 to 10 nM; in experiment [2], 50 to 100 nM; in [7] it was 50 to 100 nM; in experiment [9], 500 to 1000 nM; in [11], < 500 nM. In addition, the “IKZF 1 substrate protein remaining %” value in experiment [3] is listed as “A (0% ≤ substrate protein remaining % ≤ 80%)”. Besides, the “IKZF3 substrate protein remaining %” value in experiment [4] is “A (0% ≤ substrate protein remaining % ≤ 80%)”. Also, the “GSPT1 substrate protein remaining %” value in experiment [5] is reported as “A (0% ≤ substrate protein remaining % ≤ 80%)”. The “Weel substrate protein remaining %” value in experiment [6] is reported as “A (0% ≤ substrate protein remaining % ≤ 80%)”. The “CK1a substrate protein remaining %” value in [8] is on record as “B (80%< substrate protein remaining %≤ 100%)”. For the same molecule, in [10], the “IKZF2 substrate protein remaining %” value is recorded as “A (0% ≤ substrate protein remaining % ≤ 80%)”.
On to `Cn1cc(C2CCN(Cc3ccc4c(c3)CN(C3CCC(=O)NC3=O)C4=O)CC2)c2ccc(F)cc21` (centres unmarked) [GT-04858, 3-(5-((4-(6-fluoro-1-methyl-1H-indol-3-yl)piperidin-1-yl)methyl)-1-oxoisoindolin-2-yl)piperidine-2,6-dione], for which the IC50 was < 1 nM in [1]; 1 to 5 nM in [2]; 1 to 5 nM in experiment [7]; 5 to 10 nM in [9]; < 500 nM in experiment [11]. Besides, the “IKZF 1 substrate protein remaining %” value in experiment [3] was “A (0% ≤ substrate protein remaining % ≤ 80%)”. For the same molecule, the “IKZF3 substrate protein remaining %” value in [4] is “A (0% ≤ substrate protein remaining % ≤ 80%)”. In addition, the “GSPT1 substrate protein remaining %” value in experiment [5] was “A (0% ≤ substrate protein remaining % ≤ 80%)”. Further, the “Weel substrate protein remaining %” value in experiment [6] is given as “A (0% ≤ substrate protein remaining % ≤ 80%)”. In [8], the “CK1a substrate protein remaining %” value was “B (80%< substrate protein remaining %≤ 100%)”. Besides, the “IKZF2 substrate protein remaining %” value in experiment [10] was “A (0% ≤ substrate protein remaining % ≤ 80%)”.
As to `O=C1CCC(N2Cc3cc(CN4CC=C(c5cccc6c(F)cccc56)CC4)ccc3C2=O)C(=O)N1` (centres unmarked) [GT-04902, 3-(5-((4-(5-fluoronaphthalen-1-yl)-3,6-dihydropyridin-1(2H)-yl)methyl)-1-oxoisoindolin-2-yl)piperidine-2,6-dione], the IC50 in [1] was < 1 nM; in [2], 1 to 5 nM; in experiment [7] it was 1 to 5 nM; in experiment [9], 5 to 10 nM; in [11] it was < 500 nM. For the same molecule, the “IKZF 1 substrate protein remaining %” value in [3] is “A (0% ≤ substrate protein remaining % ≤ 80%)”. The “IKZF3 substrate protein remaining %” value in experiment [4] is “A (0% ≤ substrate protein remaining % ≤ 80%)”. Also, the “GSPT1 substrate protein remaining %” value in experiment [5] is reported as “A (0% ≤ substrate protein remaining % ≤ 80%)”. Further, the “Weel substrate protein remaining %” value in [6] is “A (0% ≤ substrate protein remaining % ≤ 80%)”. In [8], the “CK1a substrate protein remaining %” value is on record as “A (0% ≤ substrate protein remaining % ≤ 80%)”. In addition, the “IKZF2 substrate protein remaining %” value in [10] is given as “A (0% ≤ substrate protein remaining % ≤ 80%)”.
As for `O=C1CCC(N2Cc3cc(CN4CCC(n5cnc6cc(F)ccc65)CC4)ccc3C2=O)C(=O)N1` (centres unmarked) [GT-04905, 3-(5-((4-(5-fluoro-1H-benzo[d]imidazol-1-yl)piperidin-1-yl)methyl)-1-oxoisoindolin-2-yl)piperidine-2,6-dione], the IC50 was 1 to 5 nM in experiment [1], 100 to 500 nM in experiment [2], 100 to 500 nM in [7] and < 500 nM in experiment [11]. Further, in [3], the “IKZF 1 substrate protein remaining %” value is “B (80%< substrate protein remaining %≤ 100%)”. Further, the “IKZF3 substrate protein remaining %” value in experiment [4] was “A (0% ≤ substrate protein remaining % ≤ 80%)”. The “GSPT1 substrate protein remaining %” value in experiment [5] is given as “A (0% ≤ substrate protein remaining % ≤ 80%)”. Further, the “Weel substrate protein remaining %” value in experiment [6] was “B (80%< substrate protein remaining %≤ 100%)”. Besides, in experiment [8], the “CK1a substrate protein remaining %” value was “B (80%< substrate protein remaining %≤ 100%)”. For the same molecule, the “IKZF2 substrate protein remaining %” value in [10] is reported as “A (0% ≤ substrate protein remaining % ≤ 80%)”.
Take `O=C1CCC(N2Cc3cc(CN4CCC(c5noc6ccccc56)CC4)ccc3C2=O)C(=O)N1` (centres unmarked) [GT-04907, 3-(5-((4-(benzo[d]isoxazol-3-yl)piperidin-1-yl)methyl)-1-oxoisoindolin-2-yl)piperidine-2,6-dione]: the IC50 in experiment [1] was 1 to 5 nM; in experiment [2], 50 to 100 nM; in [7] it was 50 to 100 nM; in [11] it was < 500 nM. Further, the “IKZF 1 substrate protein remaining %” value in [3] is recorded as “A (0% ≤ substrate protein remaining % ≤ 80%)”. Besides, the “IKZF3 substrate protein remaining %” value in experiment [4] was “A (0% ≤ substrate protein remaining % ≤ 80%)”. Moreover, the “GSPT1 substrate protein remaining %” value in experiment [5] was “A (0% ≤ substrate protein remaining % ≤ 80%)”. In addition, in experiment [6], the “Weel substrate protein remaining %” value was “A (0% ≤ substrate protein remaining % ≤ 80%)”. Further, in experiment [8], the “CK1a substrate protein remaining %” value is reported as “B (80%< substrate protein remaining %≤ 100%)”. Further, in experiment [10], the “IKZF2 substrate protein remaining %” value is reported as “A (0% ≤ substrate protein remaining % ≤ 80%)”.
In the case of `O=C1CCC(N2Cc3cc(CN4CCN(c5n[nH]c6cc(F)ccc56)CC4)ccc3C2=O)C(=O)N1` (centres unmarked) [GT-05264, 3-(5-((4-(6-fluoro-1H-indazol-3-yl)piperazin-1-yl)methyl)-1-oxoisoindolin-2-yl)piperidine-2,6-dione], the IC50 in experiment [1] was 1 to 5 nM; in experiment [12], 10 to 50 nM; in experiment [11] it was 500 to 1000 nM. The “IKZF 1 substrate protein remaining %” value in [3] is given as “A (0% ≤ substrate protein remaining % ≤ 80%)”. In addition, in [4], the “IKZF3 substrate protein remaining %” value is given as “A (0% ≤ substrate protein remaining % ≤ 80%)”. The “GSPT1 substrate protein remaining %” value in [5] is given as “A (0% ≤ substrate protein remaining % ≤ 80%)”. The “Weel substrate protein remaining %” value in experiment [6] is given as “A (0% ≤ substrate protein remaining % ≤ 80%)”. For the same molecule, the “CK1a substrate protein remaining %” value in experiment [8] is “A (0% ≤ substrate protein remaining % ≤ 80%)”. Moreover, the “IKZF2 substrate protein remaining %” value in experiment [10] is reported as “A (0% ≤ substrate protein remaining % ≤ 80%)”.
Consider `O=C1CCC(N2Cc3cc(CN4CC=C(c5ncnc6sc7c(c56)CCCC7)CC4)ccc3C2=O)C(=O)N1` (centres unmarked) [GT-05266, 3-(1-oxo-5-((4-(5,6,7,8-tetrahydrobenzo[4,5]thieno[2,3-d]pyrimidin-4-yl)-3,6-dihydropyridin-1(2H)-yl)methyl)isoindolin-2-yl)piperidine-2,6-dione], for which the figures for the IC50 in [1], in experiment [12] and in [11] were 5 to 10 nM, 10 to 50 nM and < 500 nM, respectively. In [3], the “IKZF 1 substrate protein remaining %” value was “A (0% ≤ substrate protein remaining % ≤ 80%)”. The “IKZF3 substrate protein remaining %” value in [4] is on record as “A (0% ≤ substrate protein remaining % ≤ 80%)”. Moreover, the “GSPT1 substrate protein remaining %” value in experiment [5] is listed as “A (0% ≤ substrate protein remaining % ≤ 80%)”. Further, the “Weel substrate protein remaining %” value in experiment [6] is “A (0% ≤ substrate protein remaining % ≤ 80%)”. The “CK1a substrate protein remaining %” value in experiment [8] is “A (0% ≤ substrate protein remaining % ≤ 80%)”. The “IKZF2 substrate protein remaining %” value in experiment [10] was “A (0% ≤ substrate protein remaining % ≤ 80%)”.
Consider `O=C1CCC(N2Cc3cc(CN4CCN(c5nc(N6CCCCC6)nc6c5SCC6)CC4)ccc3C2=O)C(=O)N1` (centres unmarked) [GT-05380, 3-(1-oxo-5-((4-(2-(piperidin-1-yl)-6,7-dihydrothieno[3,2-d]pyrimidin-4-yl)piperazin-1-yl)methyl)isoindolin-2-yl)piperidine-2,6-dione], for which the IC50 in experiment [1] is 1 to 5 nM; in experiment [12] it was 10 to 50 nM; in experiment [11] it was 500 to 1000 nM. The “IKZF 1 substrate protein remaining %” value in [3] was “A (0% ≤ substrate protein remaining % ≤ 80%)”. For the same molecule, in [4], the “IKZF3 substrate protein remaining %” value was “A (0% ≤ substrate protein remaining % ≤ 80%)”. Further, the “GSPT1 substrate protein remaining %” value in experiment [5] is “A (0% ≤ substrate protein remaining % ≤ 80%)”. Also, the “Weel substrate protein remaining %” value in [6] is reported as “A (0% ≤ substrate protein remaining % ≤ 80%)”. Besides, in [8], the “CK1a substrate protein remaining %” value is reported as “A (0% ≤ substrate protein remaining % ≤ 80%)”. Besides, the “IKZF2 substrate protein remaining %” value in [10] was “A (0% ≤ substrate protein remaining % ≤ 80%)”.

Values taken from EP4745137A1 (Gluetacs Therapeutics (Shanghai) Co., Ltd., priority 2023, dated 2025).
